# According to US11970497B2, “Tricyclic AKR1C3 dependent KARS inhibitors” (Novartis AG, priority 2019, dated 2024):
# Columns and labels:
# Human KARS = target: T1, Human KARS (Homo sapiens, UniProt Q15046); assay: KARS AMP Transcreener FP assay; assay type: biochemical; conditions: 50 nM human KARS, 20 μM ATP, 50 μM L-Lysine, 1 μM tRNA, 2 h at RT; read-out: Human KARS Transcreener AMP assay Qualified absolute AC50
# T1 construct: Human KARS protein (residues 70-584) was expressed and purified; made in house
# Text: KARS AMP Transcreener FP Assay to Measure Inhibition of KARS Enzymatic Activity
# Lysine-tRNA synthetase (KARS) is an enzyme that catalyzes the reaction of ATP, L-lysine, and tRNA(Lys) to form AMP, diphosphate, and L-lysyl-tRNA(Lys).
# The Transceener® AMP/GMP (BellBrook Labs, Madison, WI, USA) is a far red, competitive fluorescence polarization (FP) immunoassay based on the detection of AMP, which is one of the products of aminoacylation of tRNA. In this assay, a fluorescently labeled AMP (AMP Alexa Fluor 633) is used as the tracer that can be recognized by a specific antibody. In the absence of AMP, all the tracer molecules are bound to the antibodies leading to large polarization. The AMP product generated by the enzyme reaction will compete with the tracer for binding to the antibody which leads to a decrease in the polarization. As such, the enzyme activity is inversely proportional to FP values.
# Human KARS protein (residues 70-584) was expressed and purified using a similar protocol to what is described in literature (Crystal structure of tetrameric form of human lysyl-tRNA synthetase: Implications for multisynthetase complex formation Guo, M., Ignatov, M., Musier-Forsyth, K., Schimmel, P., Yang, X. L. (2008) Proc. Natl. Acad. Sci. Usa 105: 2331-2336).
# The KARS enzyme assay was performed in a final volume of 10 μL per well of Corning Costar 384 well plate, flat bottom, black non-treated plate. The final assay concentration was 20 mM HEPES pH 7.5, 1 mM DTT, 50 nM human KARS, 20 μM ATP, 50 μM L-Lysine, 1 μM tRNA and 8 mM MgCl2. Compounds were serial diluted 1:3 in DMSO in a master plate to generate a 10 concentration points dose response with maximum concentration of 10 mM. 50 nL from compound master plate were spotted in each well of a 384 black plate (Corning 3573), and 5 μL of enzyme mixture containing 100 nM KARS diluted in assay buffer (20 mM HEPES pH 7.5 and 1 mM OTT) were added. The reaction was started by adding 5 μL of the substrate mixture containing 40 μM ATP (final 20 μM ATP), 100 μM L-Lysine (final 50 μM), 2 μM tRNA (final 1 μM), 16 mM MgCl2 (final 8 mM MgCl2) diluted in assay buffer (20 mM HEPES pH 7.5 and 1 mM OTT). The mixtures were mixed and incubated for 2 h at RT before the termination of the reaction.
# Transcreener® stop and detection buffers were prepared (1× stop buffer [final: 0.5×], 2 nM Tracer [final: 1 nM] and 5 μg/ml anti-AMP antibody [final: 2.5 μg/ml] in deionized water) and 10 μL of the stop and detection mix were added to the reaction wells, mixed for a minute and centrifuged at 1000 rpm for 10 seconds. The plates were read after incubating at RT for 30-60 min using Infinite® M1000 with the following settings: Excitation wavelength: 635 nm; Emission wavelength: 680 nm. FP values of DMSO controls were used to normalize the data and calculate IC50s of compounds using the Helios Software suite.
# [1] = tested on: H460 (NRF2 pathway mutant cell line with high AKR1C3 expression); assay: In vitro cell proliferation assay (CellTiter-Glo), H460; assay type: cell-based; conditions: Homo sapiens, NCI-H460, 72 h; H460 cells, 3 days, CellTiter-Glo, top concentration 10 μM; read-out: H460 Qualified absolute AC50
# Summary of the method: (§1)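 Luminescent CellTiter-Glo readout after 3-day compound exposure at 37 °C; 8-point 1:5 series, top 10 μM final. Seeding: 800 cells/well for H460, 2000 cells/well for Hara, RPMI-1640 plus 10% FBS. AC50 and percentage activity derived after normalizing to DMSO (1%) and MG132 (30 μM) controls.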
# [2] = tested on: Hara (NRF2 pathway wild type cell line with low AKR1C3 expression); assay: In vitro cell proliferation assay (CellTiter-Glo), Hara; assay type: cell-based; conditions: 72 h; Hara cells, 3 days, CellTiter-Glo, top concentration 10 μM; read-out: HARA Qualified absolute AC50
# Summary of the method: as §1
# T1 sequence (Q15046 70-584): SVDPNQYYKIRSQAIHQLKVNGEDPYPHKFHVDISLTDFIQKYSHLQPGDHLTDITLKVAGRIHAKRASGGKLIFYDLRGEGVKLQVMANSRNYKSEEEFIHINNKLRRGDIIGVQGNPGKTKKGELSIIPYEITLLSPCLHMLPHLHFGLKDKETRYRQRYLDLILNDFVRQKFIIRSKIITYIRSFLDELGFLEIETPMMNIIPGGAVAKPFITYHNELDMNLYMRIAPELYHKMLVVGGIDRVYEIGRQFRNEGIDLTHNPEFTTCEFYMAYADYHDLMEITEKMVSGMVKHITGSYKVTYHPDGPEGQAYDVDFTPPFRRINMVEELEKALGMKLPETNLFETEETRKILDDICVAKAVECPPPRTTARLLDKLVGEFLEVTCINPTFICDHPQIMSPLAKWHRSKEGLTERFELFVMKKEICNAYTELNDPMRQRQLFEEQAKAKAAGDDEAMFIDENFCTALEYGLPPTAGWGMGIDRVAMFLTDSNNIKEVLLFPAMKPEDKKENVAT
AC50 (Human KARS) [nM],SMILES,AC50 [1] [nM],AC50 [2] [nM]
42.1,"Nc1cc(CNC(=O)N2CCC3(CC2)CC(O)c2cc(F)ccc2N3)ccc1F (racemic) [Example 158, N-(3-amino-4-fluorobenzyl)-6′-fluoro-4′-hydroxy-3′,4′-dihydro-1′H-spiro[piperidine-4,2′-quinoline]-1-carboxamide]",33,6
106,"CS(=O)(=O)Nc1cc(CNC(=O)N2CCC3(CC2)CC(O)c2cc(F)ccc2N3)ccc1F (racemic) [Example 164, 6′-fluoro-N-(4-fluoro-3-(methylsulfonamido)benzyl)-4′-hydroxy-3′,4′-dihydro-1′H-spiro[piperidine-4,2′-quinoline]-1-carboxamide]",253,234
45.9,"O=C(NCc1ccc(F)c(CO)c1)N1CCC2(CC1)CC(O)c1cc(F)ccc1N2 (racemic) [Example 159, 6′-fluoro-N-(4-fluoro-3-(hydroxymethyl)benzyl)-4′-hydroxy-3′,4′-dihydro-1′H-spiro[piperidine-4,2′-quinoline]-1-carboxamide]",53,67
9.1,"CN1c2ccc(F)cc2[C@H](O)CC12CCN(C(=O)NCc1ccc(F)cc1)CC2 (single isomer, unassigned) [Example 151a]",24,20
> 10000,"CN1c2ccc(F)cc2C(=O)CC12CCN(C(=O)NCc1ccc(F)cc1)CC2 [Example 9, 6′-fluoro-N-(4-fluorobenzyl)-1′-methyl-4′-oxo-3′,4′-dihydro-1′H-spiro[piperidine-4,2′-quinoline]-1-carboxamide]",17,> 10000
243,"COCCNc1cc(F)ccc1CNC(=O)N1CCC2(CC1)CC(O)c1cc(F)ccc1N2C (racemic) [Example 166, 6′-fluoro-N-(4-fluoro-2-((2-methoxyethyl)amino)benzyl)-4′-hydroxy-1′-methyl-3′,4′-dihydro-1′H-spiro[piperidine-4,2′-quinoline]-1-carboxamide]",3,22
23.5,"CN1c2ccc(F)cc2C(O)CC12CCN(C(=O)NCc1cc(NCCO)c(F)cc1F)CC2 (racemic) [Example 156, N-(2,4-difluoro-5-((2-hydroxyethyl)amino)benzyl)-6′-fluoro-4′-hydroxy-1′-methyl-3′,4′-dihydro-1′H-spiro[piperidine-4,2′-quinoline]-1-carboxamide]",49,80
918,"CN1c2ccc(F)cc2C(O)CC12CCN(C(=O)NCc1ccc(F)c([C@@H](N)C(F)(F)F)c1)CC2 (mixture of isomers) [Example 167, N-(3-((R)-1-amino-2,2,2-trifluoroethyl)-4-fluorobenzyl)-6′-fluoro-4′-hydroxy-1′-methyl-3′,4′-dihydro-1′H-spiro[piperidine-4,2′-quinoline]-1-carboxamide]",345,100
47.2,"NC(=O)c1cc(CNC(=O)N2CCC3(CC2)CC(O)c2cc(F)ccc2N3)ccc1F (racemic) [Example 160, N-(3-carbamoyl-4-fluorobenzyl)-6′-fluoro-4′-hydroxy-3′,4′-dihydro-1′H-spiro[piperidine-4,2′-quinoline]-1-carboxamide]",0.4,1
9.1,"O=C(NCc1ccc(F)cc1)N1CCC2(CC1)C[C@@H](O)c1cc(F)ccc1N2 (single isomer, unassigned) [Example 152]",21,16
11.7,"O=C(NCc1ccc(F)cc1O)N1CCC2(CC1)C[C@@H](O)c1cc(F)ccc1N2 (single isomer, unassigned) [Example 154a]",5,5
71.8,"CN1c2ccc(F)cc2C(O)CC12CCN(C(=O)NCc1ccc(F)c(CC(N)=O)c1)CC2 (racemic) [Example 161, N-(3-(2-amino-2-oxoethyl)-4-fluorobenzyl)-6′-fluoro-4′-hydroxy-1′-methyl-3′,4′-dihydro-1′H-spiro[piperidine-4,2′-quinoline]-1-carboxamide]",278,91
199,"CN1c2ccc(F)cc2C(O)CC12CCN(C(=O)NCc1ccc(F)c(NCCO)c1)CC2 (centres unmarked) [Example 165, 6′-fluoro-N-(4-fluoro-3-((2-hydroxyethyl)amino)benzyl)-4′-hydroxy-1′-methyl-3′,4′-dihydro-1′H-spiro[piperidine-4,2′-quinoline]-1-carboxamide]",49,23
> 10000,"O=C(NCc1ccc(F)cc1)N1CCC2(CC1)C[C@H](O)c1cc(F)ccc1N2 (single isomer, unassigned) [Example 153]",2260,2500
73.7,"O=C(NC1CC(O)C1)c1cc(CNC(=O)N2CCC3(CC2)CC(O)c2cc(F)ccc2N3)ccc1F (racemic) [Example 162, 6′-fluoro-N-(4-fluoro-3-((3-hydroxycyclobutyl)carbamoyl)benzyl)-4′-hydroxy-3′,4′-dihydro-1′H-spiro[piperidine-4,2′-quinoline]-1-carboxamide]",47,–
98.4,CN1c2ccc(F)cc2C(O)CC12CCN(C(=O)NCc1ccc(F)c(OCCO)c1)CC2 (racemic) [Example 163],76,11
34.1,"NC(=O)c1cc(CNC(=O)N2CCC3(CC2)CC(O)c2cc(F)cc(F)c2N3)ccc1F (racemic) [Example 157, N-(3-carbamoyl-4-fluorobenzyl)-6′,8′-difluoro-4′-hydroxy-3′,4′-dihydro-1′H-spiro[piperidine-4,2′-quinoline]-1-carboxamide]",0.1,2
